Measured values taken from PMC4774911, “Biochemical Screening of Five Protein Kinases from Plasmodium falciparum against 14,000 Cell-Active Compounds” (PLoS ONE, 2016).
pIC50: −log10 of the molar value. Values joined by “and” are separate entries in the source; they are usually repeats but may differ in a detail not shown here. Identical values can stand only once.

Legend:
Experiment in all cases: biochemical
CDK9 = CDK9 (Homo sapiens, UniProt P50750)
PRKD2 = target: T1, PRKD2 (Homo sapiens, UniProt Q9BZL6)
T1 sequence (Q9BZL6 1-878): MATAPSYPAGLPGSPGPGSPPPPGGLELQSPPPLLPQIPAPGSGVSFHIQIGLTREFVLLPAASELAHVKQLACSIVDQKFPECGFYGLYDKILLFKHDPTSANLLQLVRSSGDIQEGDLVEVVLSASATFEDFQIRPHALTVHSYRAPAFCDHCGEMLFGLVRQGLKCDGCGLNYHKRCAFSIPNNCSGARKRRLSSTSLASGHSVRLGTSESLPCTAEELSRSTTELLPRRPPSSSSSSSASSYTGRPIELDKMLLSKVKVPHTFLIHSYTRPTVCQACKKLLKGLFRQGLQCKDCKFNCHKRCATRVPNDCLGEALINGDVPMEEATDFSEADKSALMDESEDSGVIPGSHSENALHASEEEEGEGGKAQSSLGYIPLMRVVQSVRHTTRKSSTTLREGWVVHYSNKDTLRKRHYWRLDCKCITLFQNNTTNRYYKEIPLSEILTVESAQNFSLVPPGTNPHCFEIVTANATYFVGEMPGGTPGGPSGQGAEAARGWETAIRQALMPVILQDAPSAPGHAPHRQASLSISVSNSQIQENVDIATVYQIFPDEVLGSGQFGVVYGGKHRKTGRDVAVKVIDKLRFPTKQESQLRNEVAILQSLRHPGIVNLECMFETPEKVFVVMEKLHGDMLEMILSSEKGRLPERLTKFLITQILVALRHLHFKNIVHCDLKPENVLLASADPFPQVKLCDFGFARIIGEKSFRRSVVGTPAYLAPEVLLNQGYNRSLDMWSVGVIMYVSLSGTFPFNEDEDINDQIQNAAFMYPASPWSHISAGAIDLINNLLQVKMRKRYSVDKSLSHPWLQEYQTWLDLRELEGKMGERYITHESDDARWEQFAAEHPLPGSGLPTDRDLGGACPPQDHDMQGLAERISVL

STK11 = target: T2, STK11 (Homo sapiens, UniProt Q15831)
T2 sequence (Q15831 1-433): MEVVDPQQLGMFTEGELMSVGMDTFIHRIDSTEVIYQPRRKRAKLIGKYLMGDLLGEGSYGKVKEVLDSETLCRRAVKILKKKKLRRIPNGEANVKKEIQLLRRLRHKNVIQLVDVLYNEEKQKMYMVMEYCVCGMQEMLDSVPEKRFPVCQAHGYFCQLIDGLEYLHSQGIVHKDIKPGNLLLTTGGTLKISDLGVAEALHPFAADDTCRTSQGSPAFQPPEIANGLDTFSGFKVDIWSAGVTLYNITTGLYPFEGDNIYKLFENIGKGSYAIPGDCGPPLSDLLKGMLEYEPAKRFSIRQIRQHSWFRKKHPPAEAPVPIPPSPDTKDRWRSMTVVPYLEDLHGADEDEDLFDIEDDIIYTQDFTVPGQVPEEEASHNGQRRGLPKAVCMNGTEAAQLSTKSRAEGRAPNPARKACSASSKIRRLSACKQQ

GSK3B = GSK3B (Homo sapiens, UniProt P49841)
CDK2 = CDK2 (Homo sapiens, UniProt P24941)
LATS1 = target: T3, LATS1 (Homo sapiens, UniProt O95835)
T3 sequence (O95835 1-1130): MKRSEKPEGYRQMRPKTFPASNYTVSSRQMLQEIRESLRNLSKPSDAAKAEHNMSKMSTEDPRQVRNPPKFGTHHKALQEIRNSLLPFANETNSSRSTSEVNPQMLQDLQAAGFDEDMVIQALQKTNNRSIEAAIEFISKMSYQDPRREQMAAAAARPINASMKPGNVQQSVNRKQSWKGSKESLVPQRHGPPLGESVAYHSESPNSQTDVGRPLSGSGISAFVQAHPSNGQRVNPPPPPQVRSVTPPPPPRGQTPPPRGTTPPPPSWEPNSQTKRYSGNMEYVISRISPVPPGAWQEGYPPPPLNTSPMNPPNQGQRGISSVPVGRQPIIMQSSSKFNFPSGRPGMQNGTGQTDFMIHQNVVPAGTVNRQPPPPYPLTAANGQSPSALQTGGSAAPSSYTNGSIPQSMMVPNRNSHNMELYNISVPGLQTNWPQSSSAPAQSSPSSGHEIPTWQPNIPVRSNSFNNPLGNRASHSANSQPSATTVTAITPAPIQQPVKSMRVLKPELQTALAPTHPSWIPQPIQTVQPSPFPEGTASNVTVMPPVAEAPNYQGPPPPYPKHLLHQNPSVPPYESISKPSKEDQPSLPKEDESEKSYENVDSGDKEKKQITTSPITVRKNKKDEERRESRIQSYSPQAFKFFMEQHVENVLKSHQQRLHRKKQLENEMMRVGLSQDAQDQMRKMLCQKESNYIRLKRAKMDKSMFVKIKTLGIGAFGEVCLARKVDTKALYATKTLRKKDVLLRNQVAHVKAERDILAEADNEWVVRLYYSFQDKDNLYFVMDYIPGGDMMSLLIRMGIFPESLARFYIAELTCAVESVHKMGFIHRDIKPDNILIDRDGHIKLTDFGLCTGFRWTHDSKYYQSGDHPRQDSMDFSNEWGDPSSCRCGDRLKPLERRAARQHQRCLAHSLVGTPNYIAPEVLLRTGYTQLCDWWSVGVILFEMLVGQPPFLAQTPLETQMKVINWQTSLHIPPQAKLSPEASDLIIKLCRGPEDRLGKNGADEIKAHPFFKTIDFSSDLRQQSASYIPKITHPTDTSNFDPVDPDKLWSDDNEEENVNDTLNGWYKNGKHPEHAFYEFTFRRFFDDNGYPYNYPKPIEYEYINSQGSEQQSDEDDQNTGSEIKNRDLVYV

CDK9, sequence (P50750 whole entry): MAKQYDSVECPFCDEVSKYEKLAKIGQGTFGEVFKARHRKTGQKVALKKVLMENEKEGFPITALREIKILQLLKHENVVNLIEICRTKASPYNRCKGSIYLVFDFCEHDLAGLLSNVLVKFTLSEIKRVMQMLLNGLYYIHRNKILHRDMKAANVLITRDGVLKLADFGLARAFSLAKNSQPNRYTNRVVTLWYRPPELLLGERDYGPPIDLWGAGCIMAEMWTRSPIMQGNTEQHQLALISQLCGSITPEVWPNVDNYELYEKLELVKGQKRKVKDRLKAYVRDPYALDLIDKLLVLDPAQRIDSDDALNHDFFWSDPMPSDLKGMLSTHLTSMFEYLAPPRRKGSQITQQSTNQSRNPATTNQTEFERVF
GSK3B, sequence (P49841 whole entry): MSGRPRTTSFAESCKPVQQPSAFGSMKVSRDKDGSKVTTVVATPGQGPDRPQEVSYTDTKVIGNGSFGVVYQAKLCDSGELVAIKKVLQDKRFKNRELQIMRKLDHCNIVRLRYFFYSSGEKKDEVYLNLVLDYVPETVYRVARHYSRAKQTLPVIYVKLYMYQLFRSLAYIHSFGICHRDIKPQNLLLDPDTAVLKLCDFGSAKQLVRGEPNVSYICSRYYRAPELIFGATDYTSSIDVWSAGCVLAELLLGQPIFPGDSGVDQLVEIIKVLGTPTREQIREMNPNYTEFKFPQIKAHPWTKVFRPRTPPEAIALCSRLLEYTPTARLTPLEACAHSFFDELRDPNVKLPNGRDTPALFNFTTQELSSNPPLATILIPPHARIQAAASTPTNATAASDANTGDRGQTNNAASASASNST

Row | Compound | pIC50 (CDK9) | pIC50 (PRKD2) | pIC50 (STK11) | pIC50 (GSK3B) | pIC50 (CDK2) | pIC50 (LATS1)
1 | CN(C)CC(O)COc1ccc(Nc2ncc([N+](=O)[O-])c(Nc3ccccc3O)n2)cc1.O=C(O)C(F)(F)F (stereo not drawn) [TCMDC-141399] | 5.28 and 5.14 | 5.72 | 5.36 | 5.08 and 4.96 | < 4.70 | < 4.70
2 | Cl.NCC1(c2nc(-c3ccc(Cl)c(O)c3)c(-c3ccncc3)[nH]2)CCCCC1 [TCMDC-141154] | < 4.70 | 5.28 and 5.37 | 5.85 | 5.11 | < 4.70 | 5.96
3 | CN1CCN(c2ccc(Nc3ncc(C#N)c(Nc4ccccc4C(N)=O)n3)cc2)CC1.Cl [TCMDC-134116] | 5.96 and 6.12 | 6.47 and 6.48 | 6.00 | 5.62 and 5.82 | 6.44 and 6.46 | 6.68
